Measurements from patent US8785396B2, “Method and composition for treating migraines” (Mannkind Corporation, priority 2007, dated 2014).
Blank lines part the entries; values can stand above or below the molecule they belong to.

Assays:
[1] = Sumatriptan pharmacokinetics in female Sprague Dawley rats; conditions: rat, in vivo, 0.358 mg
ZDF rats = experiment: Intraperitoneal glucose tolerance test (IPGTT) in ZDF rats (exendin-4); type: in vivo, rat; conditions: subcutaneous injection
Description: After an overnight fast, ZDF rats were given a glucose challenge by intraperitoneal injection (IPGTT).

[2] = system: patients with Type 2 diabetes; experiment: Phase 1 clinical trial of GLP-1/FDKP inhalation powder in fasted Type 2 diabetes patients: serum glucose; type: in vivo, human; conditions: 1.5 mg GLP-1 inhaled; attained by the 30 min time point
Protocol: […]. These studies were conducted according to Example 1 and as described herein. […]. No. 11/735,957, which disclosure is incorporated herein by reference. […].
[…]. The serum glucose levels were analyzed for each sample.

[3] = system: patients diagnosed with type 2 diabetes; experiment: Meal challenge study in type 2 diabetes patients: GLP-1 levels, insulin, glucose, gastric emptying; type: in vivo, human
Protocol: Experimental Design: The study was divided into two periods and enrolled 20 patients diagnosed with type 2 diabetes ranging in age from 20 to 64 years of age. […] Period 2 was performed after completion of Period 1. […] The results of this study are depicted in FIGS. 18-20.

[4] = system: healthy adult male subjects; experiment: Phase 1a clinical trial: insulin, glucose and glucagon response after inhaled GLP-1; type: in vivo, human
Protocol: GLP-1/FDKP inhalation powder was administered using the MedTone® Inhaler device, previously tested. The experiments were designed to identify the safety and tolerability of various doses of GLP-1/FDKP inhalation powder by pulmonary inhalation.
Dropouts were not replaced. These dosages assumed a body mass of 70 kg.

Male ZDF rats = experiment: Cumulative food consumption in male ZDF rats (oxyntomodulin); type: in vivo, rat; conditions: 30% oxyntomodulin/FDKP powder by pulmonary insufflation, fasted ZDF rats
Female ZDF rats [5] = experiment: Food consumption in female ZDF rats (PYY); type: in vivo, rat; conditions: Group 1: 0.6 mg IV
Female ZDF rats [6] = experiment: Blood glucose in female ZDF rats (PYY); type: in vivo, rat; conditions: Group 1: PYY IV

bioavailability ([1]; iv): 100% | bioavailability ([1]; sc): 36.4%
Molecule: CNS(=O)(=O)Cc1ccc2[nH]cc(CCN(C)C)c2c1 [Sumatriptan, sumatriptan]

Molecule: exenatide
time blood glucose was significantly lowered following IPGTT versus air control (ZDF rats): 30 min

Molecule: glucagon-like peptide 1 [GLP-1]
mean glucose drop [2]: approximately 1 mmol/L | insulin response ([3]; GLP-1 dry powder comprising FDKP, fed and fasted groups): more significant | blood glucose after meal challenge ([3]; GLP-1 dry powder formulation): delayed rise in blood glucose and reduced overall exposure (AUC) to glucose | decrease in plasma glucose in two of the six subjects ([4]; 1.5 mg GLP-1 inhaled): more than 1.5 mol/L | mean fasting plasma glucose 20 min after dosing ([4]; 1.5 mg GLP-1 inhaled, reduced from 85): 70 mg/dL | largest decrease in plasma glucagon ([4]; 1.5 mg dose group): approximately 2.5 pmol/L | time of maximum change in plasma glucagon ([4]; after dosing, inhaled GLP-1): 12 min | peak plasma insulin levels in one subject ([4]; inhaled GLP-1): exceeded 700 pmol/L | peak plasma insulin response in most subjects ([4]; inhaled GLP-1, dose groups 0.05-1.5 mg): 200 to 400 pmol/L

Molecule: oxyntomodulin
time after dosing with significantly less food consumed than control rats (Male ZDF rats): up to 6 hr

Molecule: peptide YY(3-36) [PYY]
food consumption (Female ZDF rats [5]): relatively effective in reducing food consumption | time after dosing up to which blood glucose level was lower than in the other rats (Female ZDF rats [6]): about 15 min
